The subject of this assay is Human immunodeficiency virus 1. In words: Antiviral activity against HIV1 NL4.3-Ren infected in human MT2 cells assessed as inhibition of viral growth at 10 uM measured 48 hrs post infection by luminometry. The conditions noted are these: Human immunodeficiency virus 1, NL4.3-Ren, MT2, 48 h. Format: functional.

Where only a bound is given, the exact number is not on record here.

Data on 17 molecules can be found in ChEMBL document CHEMBL3580560, “Isolation, Structural Modification, and HIV Inhibition of Pentacyclic Lupane-Type Triterpenoids from Cassine xylocarpa and Maytenus cuzcoina” (J Nat Prod, 2015).

What is called inhibition is the change of the read-out against control, counted positive when it falls. Regarding `C=C(C)[C@@H]1CC[C@]2(COC(C)=O)CC[C@]3(C)[C@H](CC[C@@H]4[C@@]5(C)CC[C@H](O)C(C)(C)[C@@H]5CC[C@]43C)[C@@H]12`, the inhibition at 10 µM is less than 50%.
As for `C=C(C)[C@@H]1CC[C@]2(C)CC[C@]3(C)[C@H](C[C@@H](O)[C@@H]4[C@@]5(C)CC[C@@H](O)C(C)(C)[C@@H]5CC[C@]43C)[C@@H]12`, the inhibition at 10 µM was less than 50%.
In the case of `C=C(C)[C@@H]1CC[C@]2(C)CC[C@]3(C)[C@H](CC[C@@H]4[C@@]5(C)[C@H](O)C[C@H](O)C(C)(C)[C@@H]5CC[C@]43C)[C@@H]12` it was less than 50%; in that of `C=C(C)[C@@H]1CC[C@]2(COC(=O)C(C)(C)C)CC[C@]3(C)[C@H](CC[C@@H]4[C@@]5(C)CC[C@H](O)C(C)(C)[C@@H]5CC[C@]43C)[C@@H]12`, less than 50%; in that of `C=C(C)[C@@H]1CC[C@]2(COC(=O)CCCCCCC)CC[C@]3(C)[C@H](CC[C@@H]4[C@@]5(C)CC[C@H](O)C(C)(C)[C@@H]5CC[C@]43C)[C@@H]12`, less than 50%.
For the molecule `C=C(C)[C@@H]1CC[C@]2(COC(=O)c3ccccc3)CC[C@]3(C)[C@H](CC[C@@H]4[C@@]5(C)CC[C@H](O)C(C)(C)[C@@H]5CC[C@]43C)[C@@H]12`, the inhibition at 10 µM was less than 50%.
In the case of `C=C(C)[C@@H]1CC[C@]2(COC(=O)c3cccc4ccccc34)CC[C@]3(C)[C@H](CC[C@@H]4[C@@]5(C)CC[C@H](O)C(C)(C)[C@@H]5CC[C@]43C)[C@@H]12` it was less than 50%; in that of `C=C(C)[C@@H]1CC[C@]2(COC(=O)c3ccc(Br)cc3)CC[C@]3(C)[C@H](CC[C@@H]4[C@@]5(C)CC[C@H](O)C(C)(C)[C@@H]5CC[C@]43C)[C@@H]12`, less than 50%; in that of `C=C(C)[C@@H]1CC[C@]2(COS(=O)(=O)c3ccc(C)cc3)CC[C@]3(C)[C@H](CC[C@@H]4[C@@]5(C)CC[C@H](O)C(C)(C)[C@@H]5CC[C@]43C)[C@@H]12`, less than 50%.
In the case of `C=C(C)[C@@H]1CC[C@]2(COC(=O)CCCCCCC)CC[C@]3(C)[C@H](CC[C@@H]4[C@@]5(C)CC[C@H](OC(=O)CCCCCCC)C(C)(C)[C@@H]5CC[C@]43C)[C@@H]12` it was less than 50%; in that of `C=C(C)[C@@H]1CC[C@]2(COC(=O)c3cccc4ccccc34)CC[C@]3(C)[C@H](CC[C@@H]4[C@@]5(C)CC[C@H](OC(=O)c6cccc7ccccc67)C(C)(C)[C@@H]5CC[C@]43C)[C@@H]12`, less than 50%; in that of `C=C(C)[C@@H]1CC[C@]2(CO[Si](C)(C)C(C)(C)C)CC[C@]3(C)[C@H](CC[C@@H]4[C@@]5(C)CC[C@H](O)C(C)(C)[C@@H]5CC[C@]43C)[C@@H]12`, less than 50%.
In the case of `CC(=O)OC[C@]12CC[C@@H](C(C)(O)CO)[C@@H]1[C@H]1CC[C@@H]3[C@@]4(C)CC[C@H](O)C(C)(C)[C@@H]4CC[C@@]3(C)[C@]1(C)CC2` (some centres not stated) it was less than 50%; in that of `CC(=O)OC[C@]12CC[C@@H]([C@]3(C)CO3)[C@@H]1[C@H]1CC[C@@H]3[C@@]4(C)CC[C@H](O)C(C)(C)[C@@H]4CC[C@@]3(C)[C@]1(C)CC2`, less than 50%; in that of `CC(C)[C@@H]1CC[C@]2(C)CC[C@]3(C)[C@@H](CC[C@@H]4[C@@]5(C)CC[C@H](OC(=O)/C=C/c6ccc(O)c(O)c6)C(C)(C)[C@@H]5CC[C@]43C)[C@@H]12`, less than 50%.
`C=C(C)[C@@H]1CC[C@]2(CO)CC[C@]3(C)[C@H](CC[C@@H]4[C@@]5(C)CC[C@H](OC(=O)/C=C/c6ccc(O)c(O)c6)C(C)(C)[C@@H]5CC[C@]43C)[C@@H]12`: the inhibition at 10 µM is less than 50%.
For the molecule `C=C(CO)[C@@H]1CC[C@]2(C)CC[C@]3(C)[C@H](CC[C@@H]4[C@@]5(C)CC[C@H](O)C(C)(C)[C@@H]5CC[C@]43C)[C@@H]12`, the inhibition at 10 µM is less than 50%.
